Converted amounts (≈) assume the structure as drawn. Where two headings read alike, the source gives them in different places.
Tests used:
[1] = L929 cytotoxicity evaluation (resazurin); format: cell-based; conditions: mouse, L929 mouse fibroblast cells; 72 hrs incubation; read-out: Cytotox L-929 IC50
Description: For evaluation of compound effects on mammalian cells, L929 mouse fibroblast cells were used. Cells were maintained as adherent cultures in T-25 vented cap flasks in a humidified incubator at 37° C. in the presence of 5% CO2. Culture media was D-MEM supplemented with 10% fetal bovine serum and 1% penicillin/streptomycin. L929 cells were maintained below confluent levels by sub-culturing at 1:10 dilution twice weekly using 0.05% trypsin for detachment.
Sub-confluent L929 cells were trypsinized, resuspended in fresh media and 10 uL was counted using hemocytometer to determine cell concentration. Cells were diluted to 1×10^4/mL in DMEM, dispensed (100 uL) into 96-well plates using a Multidrop 384 dispenser and allowed to attach overnight. Spent media was replaced with 99.5 uL fresh D-MEM and compounds to be tested were serially diluted in DMSO and 0.5 uL added using a Biomek NX liquid handler. Plates were incubated with compounds for 72 hrs at 37° C. with 5% CO2. Resazurin (20 uL of 12.5 mg/ml stock) from Sigma-Aldrich was added to each well and plates were incubated for an additional 3-4 hrs. Assay plates were read using an EnVision plate reader at an excitation wavelength of 544 nm and emission of 590 nm. Single data points were used to generate sigmoidal dose response curves and determine IC50 values using XLfit curve fitting software from IDBS (Guildford, UK).

[2] = system: bloodstream-form trypanosome T. brucei brucei 427 strain; test: Trypanosoma brucei brucei high-throughput in vitro drug sensitivity assay (resazurin); format: cell-based; conditions: for IC50: Trypanosoma brucei; for Selectivity Index (L929 IC50 / T. b. brucei IC50): T. b. brucei vs L929
[3] = 72 hrs incubation, read-out: T.b. brucei IC50
[4] = 72 hrs incubation, read-out: T. b. brucei IC50

Row | SMILES | IC50 at 72 h [1] | IC50 [2, 3] | IC50 [2, 4] | Selectivity Index (L929 IC50 / T. b. brucei IC50) [2] | IC50 ([2]; 72 h, read-out: T.b. brucei IC50 (ug/mL))
1 | CC1(C)OB(O)c2cc(NC(=O)c3cccc(Cl)c3)ccc21 [compound 42, 3-Chloro-N-(1-hydroxy-3,3-dimethyl-1,3-dihydro-benzo[c][1,2]oxaborol-6-yl)-benzamide] | > 10 mg/L | 2.12 µg/mL |  |  | 
2 | CC1(C)OB(O)c2cc(NC(=O)C3CC3)ccc21 [compound 126, Cyclopropanecarboxylic acid (1-hydroxy-3,3-dimethyl-1,3-dihydro-benzo[c][1,2]oxaborol-6-yl)-amide] | > 10 mg/L | > 5 µg/mL |  |  | 
3 | CC1(C)OB(O)c2cc(NC(=O)c3cc([N+](=O)[O-])ccc3Cl)ccc21 [compound 92] | 2.68 mg/L (≈ 7.43 µM) | 0.158 µg/mL |  |  | 
4 | CC(C)CC1OB(O)c2cc(NC(=O)c3ccc(F)cc3)ccc21 (centres unmarked) [compound 24, 4-Fluoro-N-(1-hydroxy-3-isobutyl-1,3-dihydro-benzo[c][1,2]oxaborol-6-yl)-benzamide] | > 10 mg/L | > 5 µg/mL | > 15.3 µM |  | 
5 | O=C(Nc1ccc2c(c1)B(O)OC2C1CCCC1)c1ccccc1Cl (centres unmarked) [compound 18, 2-Chloro-N-(3-cyclopentyl-1-hydroxy-1,3-dihydro-benzo[c][1,2]oxaborol-6-yl)-benzamide] | 9.29 mg/L (≈ 26.1 µM) | 4.22 µg/mL | 11.9 µM | 2 | 
6 | Cc1cccc(C(=O)Nc2ccc3c(c2)B(O)OC3(C)C)c1 [compound 28, N-(1-Hydroxy-3,3-dimethyl-1,3-dihydro-benzo[c][1,2]oxaborol-6-yl)-3-methyl-benzamide] | > 10 mg/L | 3.17 µg/mL |  |  | 
7 | CC(=O)Nc1ccc2c(c1)B(O)OC2(C)C [compound 130, N-(1-Hydroxy-3,3-dimethyl-1,3-dihydro-benzo[c][1,2]oxaborol-6-yl)-acetamide] | > 10 mg/L | > 5 µg/mL |  |  | 
8 | CC1(C)OB(O)c2cc(NC(=O)Cc3cccs3)ccc21 [compound 125, N-(1-Hydroxy-3,3-dimethyl-1,3-dihydro-benzo[c][1,2]oxaborol-6-yl)-2-thiophen-2-yl-acetamide] | > 10 mg/L | > 5 µg/mL |  |  | 
9 | CC1(C)OB(O)c2cc(NC(=O)c3cccs3)ccc21 [compound 124, Thiophene-2-carboxylic acid (1-hydroxy-3,3-dimethyl-1,3-dihydro-benzo[c][1,2]oxaborol-6-yl)-amide] | > 10 mg/L | 2.7 µg/mL |  |  | 
10 | CC1(C)OB(O)c2cc(NC(=O)c3ccc(Cl)cc3Br)ccc21 [compound 75, 2-Bromo-4-chloro-N-(1-hydroxy-3,3-dimethyl-1,3-dihydro-benzo[c][1,2]oxaborol-6-yl)-benzamide] | > 10 mg/L | 0.405 µg/mL |  |  | 
11 | CC1(C)OB(O)c2cc(NC(=O)c3cc(C(F)(F)F)cc(C(F)(F)F)c3)ccc21 [compound 80, N-(1-Hydroxy-3,3-dimethyl-1,3-dihydro-benzo[c][1,2]oxaborol-6-yl)-3,5-bis-trifluoromethyl-benzamide] | > 10 mg/L | > 5 µg/mL |  |  | 
12 | CC1OB(O)c2cc(NC(=O)c3cccc(F)c3)ccc21 (centres unmarked) [compound 10, 3-Fluoro-N-(1-hydroxy-3-methyl-1,3-dihydro-benzo[c][1,2]oxaborol-6-yl)-benzamide] | > 10 mg/L | 0.037 µg/mL | 0.13 µM | >207 | 
13 | CC(C)CC1OB(O)c2cc(NC(=O)c3ccccc3Cl)ccc21 (centres unmarked) [compound 25, 2-Chloro-N-(1-hydroxy-3-isobutyl-1,3-dihydro-benzo[c][1,2]oxaborol-6-yl)-benzamide] | > 10 mg/L | > 5 µg/mL | > 14.6 µM |  | 
14 | CC1OB(O)c2cc(NC(=O)c3ccccc3I)ccc21 (centres unmarked) [compound 15, N-(1-Hydroxy-3-methyl-1,3-dihydro-benzo[c][1,2]oxaborol-6-yl)-2-iodo-benzamide] | 2.45 mg/L (≈ 6.23 µM) | 0.068 µg/mL | 0.173 µM | 36 | 
15 | CC1(C)OB(O)c2cc(NC(=O)c3ccc(Cl)cc3)ccc21 [compound 45, 4-Chloro-N-(1-hydroxy-3,3-dimethyl-1,3-dihydro-benzo[c][1,2]oxaborol-6-yl)-benzamide] | > 10 mg/L | 3.64 µg/mL |  |  | 
16 | CC1(C)OB(O)c2cc(NC(=O)c3cccc(Cl)c3F)ccc21 [compound 70, 3-Chloro-2-fluoro-N-(1-hydroxy-3,3-dimethyl-1,3-dihydro-benzo[c][1,2]oxaborol-6-yl)-benzamide] | > 10 mg/L | 0.377 µg/mL |  |  | 

Row | SMILES | IC50 at 72 h [1] | IC50 [2, 3] | IC50 [2, 4] | Selectivity Index (L929 IC50 / T. b. brucei IC50) [2] | IC50 ([2]; 72 h, read-out: T.b. brucei IC50 (ug/mL))
17 | CC1(C)OB(O)c2cc(NC(=O)c3c(C(F)(F)F)ccc(Cl)c3F)ccc21 [compound 109, 3-Chloro-2-fluoro-N-(1-hydroxy-3,3-dimethyl-1,3-dihydro-benzo[c][1,2]oxaborol-6-yl)-6-trifluoromethyl-benzamide] | > 10 mg/L | 0.379 µg/mL |  |  | 
18 | CC(C)CC1OB(O)c2cc(NC(=O)c3ccccc3C(F)(F)F)ccc21 (centres unmarked) [compound 22, N-(1-Hydroxy-3-isobutyl-1,3-dihydro-benzo[c][1,2]oxaborol-6-yl)-2-trifluoromethyl-benzamide] | > 10 mg/L | 0.866 µg/mL | 2.3 µM | >12 | 
19 | CCc1ccc(C(=O)Nc2ccc3c(c2)B(O)OC3(C)C)cc1 [compound 30, 4-Ethyl-N-(1-hydroxy-3,3-dimethyl-1,3-dihydro-benzo[c][1,2]oxaborol-6-yl)-benzamide] | > 10 mg/L | 0.427 µg/mL |  |  | 
20 | CC1(C)OB(O)c2cc(NC(=O)c3ccccc3[N+](=O)[O-])ccc21 [compound 55, N-(1-Hydroxy-3,3-dimethyl-1,3-dihydro-benzo[c][1,2]oxaborol-6-yl)-2-nitro-benzamide] | > 10 mg/L | 0.122 µg/mL |  |  | 
21 | CC1(C)OB(O)c2cc(NC(=O)c3cc(F)ccc3C(F)(F)F)ccc21 [compound 88, 5-Fluoro-N-(1-hydroxy-3,3-dimethyl-1,3-dihydro-benzo[c][1,2]oxaborol-6-yl)-2-trifluoromethyl-benzamide] | > 10 mg/L | 0.313 µg/mL |  |  | 
22 | CC1(C)OB(O)c2cc(NC(=O)c3cccc(OC(F)(F)F)c3)ccc21 [compound 52, N-(1-Hydroxy-3,3-dimethyl-1,3-dihydro-benzo[c][1,2]oxaborol-6-yl)-3-trifluoromethoxy-benzamide] | > 10 mg/L | 2.27 µg/mL |  |  | 
23 | CC1(C)OB(O)c2cc(NC(=O)c3ccc(N4CCOCC4)cc3)ccc21 [compound 61, N-(1-Hydroxy-3,3-dimethyl-1,3-dihydro-benzo[c][1,2]oxaborol-6-yl)-4-morpholin-4-yl-benzamide] | > 10 mg/L | 1.6 µg/mL |  |  | 
24 | CC1OB(O)c2cc(NC(=O)c3ccc(F)cc3Br)ccc21 (centres unmarked) [compound 16, 2-Bromo-4-fluoro-N-(1-hydroxy-3-methyl-1,3-dihydro-benzo[c][1,2]oxaborol-6-yl)-benzamide] | 3.06 mg/L (≈ 8.41 µM) | 0.107 µg/mL | 0.294 µM | 29 | 
25 | CC1(C)OB(O)c2cc(NC(=O)c3cccc(C(F)(F)F)c3)ccc21 [compound 35, N-(1-Hydroxy-3,3-dimethyl-1,3-dihydro-benzo[c][1,2]oxaborol-6-yl)-3-trifluoromethyl-benzamide] | > 10 mg/L | 2.74 µg/mL |  |  | 
26 | CC1(C)OB(O)c2cc(NC(=O)C3CCCC3)ccc21 [compound 128, Cyclopentanecarboxylic acid (1-hydroxy-3,3-dimethyl-1,3-dihydro-benzo[c][1,2]oxaborol-6-yl)-amide] | > 10 mg/L | > 5 µg/mL |  |  | 
27 | CC1(C)OB(O)c2cc(NC(=O)c3cccc(C(F)(F)F)c3F)ccc21 [compound 83, 2-Fluoro-N-(1-hydroxy-3,3-dimethyl-1,3-dihydro-benzo[c][1,2]oxaborol-6-yl)-3-trifluoromethyl-benzamide] | > 10 mg/L | 0.543 µg/mL |  |  | 
28 | Cc1ccc(C(=O)Nc2ccc3c(c2)B(O)OC3(C)C)c(C)c1 [compound 78, N-(1-Hydroxy-3,3-dimethyl-1,3-dihydro-benzo[c][1,2]oxaborol-6-yl)-2,4-dimethyl-benzamide] | > 10 mg/L | 1.1 µg/mL |  |  | 
29 | Cc1ccc(Cl)c(C(=O)Nc2ccc3c(c2)B(O)OC3(C)C)c1F [compound 108, 6-Chloro-2-fluoro-N-(1-hydroxy-3,3-dimethyl-1,3-dihydro-benzo[c][1,2]oxaborol-6-yl)-3-methyl-benzamide] | > 10 mg/L | 0.378 µg/mL |  |  | 
30 | O=C(Nc1ccc2c(c1)B(O)OC21CC1)c1ccc(F)cc1C(F)(F)F [compound 133] | > 10 mg/L | 0.191 µg/mL |  | 100 | 
31 | CC1(C)OB(O)c2cc(NC(=O)c3ccccc3F)ccc21 [compound 37, 2-Fluoro-N-(1-hydroxy-3,3-dimethyl-1,3-dihydro-benzo[c][1,2]oxaborol-6-yl)-benzamide] | > 10 mg/L | 1.42 µg/mL |  |  | 
32 | C=Cc1ccc(C(=O)Nc2ccc3c(c2)B(O)OC3(C)C)c(Cl)c1 [compound 97, 2-Chloro-N-(1-hydroxy-3,3-dimethyl-1,3-dihydro-benzo[c][1,2]oxaborol-6-yl)-4-vinyl-benzamide] | > 10 mg/L |  |  |  | 0.05 µg/mL
